US20250034216A1, “STEREOSELECTIVE COVALENT LIGANDS FOR ONCOGENIC AND IMMUNOLOGICAL PROTEINS” (The Scripps Research Institute, priority 2021, published 2025)

Key:
DDX49_258 = target: T1, DDX49_258 (Homo sapiens, UniProt Q9Y6V7); assay: IA-DTB cysteine engagement; type: binding; details: 22Rv1 cells, 5 μM probe, 1 h (FIG. 5B), relative to DMSO
T1 construct: endogenous in cells; host or cells: 22Rv1
How it was run: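 In-situ probe treatment of cells; lysate 2 mg/mL, IA-DTB 1 h RT; MeOH/CHCl3 precipitation, DTT/iodoacetamide, trypsin; streptavidin enrichment; TMT labeling, high-pH fractionation. Ratio = TMT reporter intensity / mean DMSO channels, median-normalized.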

[1] = target: T2, recombinant FLAG-PSME1 (PSME1_C22) (Homo sapiens, UniProt Q06323); assay: Gel-based ABPP for PSME1 cysteine engagement; type: binding; details: HEK293T lysates expressing FLAG-PSME1, in vitro, then 2.5 μM MY-11B 30 min; read-out: IC50 for engaging PSME1_C22 (competition against MY-11B labeling)
T2 construct: FLAG (C); expressed in transfected cells; host or cells: HEK293T (lysate treated in vitro)
Procedure: C-terminally FLAG-tagged PSME1 WT or C22A were transiently expressed in HEK293T cells, harvested 48 hours later, then cells were divided into aliquots, flash frozen and stored at −80 C. On the day of the experiment, an aliquot of cells were thawed, lysed by sonication in ice-cold PBS supplemented with cOmplete protease inhibitors (1 tablet/10 mL of PBS). normalized to 2.0 mg/mL, and divided into 25 μL aliquots. 1 μL of DMSO or compound (25× stock) was incubated with lysates for 1.5 hours at RT, followed by incubation with 1 μL of 62.5 μM MY-11B click probe (final concentration […]) for an additional 30 minutes. Reagents for the CuAAC click reaction were pre-mixed prior to addition to the samples. After 1 hour of click labeling, 4×SDS running buffer was added to samples, which were then analyzed by SDS-PAGE. ImageJ was used to quantify rhodamine band intensities, and GraphPad PRISM Version 9.0.0 was used to generate IC50 curves (four-parameter variable slope least squares regression).

p27 = assay: anti-p27 western blot; type: cell-based, human; details: 22Rv1 cells, 24 h
[2] = system: SF3B1 interacting proteins; assay: SF3B1 co-immunoprecipitation-MS; type: cell-based, human; details: HEK293T cells, 5 μM WX-02-23 or 10 nM pladienolide B, 3 h
Procedure: HEK293T cells were treated in situ with DMSO, 5 μM of WX-02-23/WX-02-43, or 10 nM pladienolide B for 3 hours. Cells were harvested, washed with ice-cold PBS, and lysed in ColP lysis buffer (0.5% NP-40, 100 mM EPPS, 150 mM NaCl, cOmplete protease inhibitor). Lysates centrifuged at 16,000 g for 3 minutes, normalized to 2.0 mg/mL and 500 μL of each lysate was aliquoted to a clean eppendorf tube.
Lysates were incubated with 5 μL of anti-IgG or anti-SF3B1 (CST) for 2 hours at 4 C, followed by 1 hour with 25 μL of protein-A agarose beads. Bead were washed twice with ColP lysis buffer, and then twice with 100 mM EPPS, followed by elution with 8 M urea in EPPS at 65 C for 10 min. […] Samples were then trypsinized at 37 C overnight (2 ug of trypsin per sample), then TMT labeled and desalted.

T1 sequence (Q9Y6V7 whole entry): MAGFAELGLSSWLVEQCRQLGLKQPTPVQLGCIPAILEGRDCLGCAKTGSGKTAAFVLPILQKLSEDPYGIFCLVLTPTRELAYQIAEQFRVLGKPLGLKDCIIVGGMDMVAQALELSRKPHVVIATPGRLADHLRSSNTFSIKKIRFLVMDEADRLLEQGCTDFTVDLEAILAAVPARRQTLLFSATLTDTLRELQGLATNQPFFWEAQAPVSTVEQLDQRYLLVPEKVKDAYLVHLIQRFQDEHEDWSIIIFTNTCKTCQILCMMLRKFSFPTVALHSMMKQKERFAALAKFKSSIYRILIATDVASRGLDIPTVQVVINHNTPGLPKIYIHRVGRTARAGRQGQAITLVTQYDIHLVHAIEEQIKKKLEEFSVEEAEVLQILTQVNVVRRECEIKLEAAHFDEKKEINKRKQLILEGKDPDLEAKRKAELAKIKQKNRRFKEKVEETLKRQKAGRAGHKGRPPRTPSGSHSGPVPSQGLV
T2 sequence (Q06323 whole entry): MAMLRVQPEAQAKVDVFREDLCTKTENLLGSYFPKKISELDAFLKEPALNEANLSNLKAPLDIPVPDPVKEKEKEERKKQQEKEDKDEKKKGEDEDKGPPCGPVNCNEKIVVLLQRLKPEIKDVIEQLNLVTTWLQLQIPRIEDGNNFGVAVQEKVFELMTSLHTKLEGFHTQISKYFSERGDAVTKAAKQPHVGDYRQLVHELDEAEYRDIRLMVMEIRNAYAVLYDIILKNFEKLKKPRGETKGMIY

Row | Compound | % engagement DDX49_258 (DDX49_258) [%] | IC50 [1] [nM] | p27 expression (p27) | SF3B1 interactions (DDX42 association) [2]
1 | C=CC(=O)N1C[C@H](c2ccc(Br)cc2)[C@@H]1C(=O)Nc1cccc2cccnc12 [MY-1B, (2R,3S)-1-acryloyl-3-(4-bromophenyl)-N-(quinolin-8-yl)azetidine-2-carboxamide] | 5.50 | – | – | –
2 | CC#CC(=O)N1C[C@H](c2ccc(Br)cc2)[C@@H]1C(=O)Nc1cccc2cccnc12 [MY-45B, (2R,3S)-3-(4-bromophenyl)-1-(but-2-ynoyl)-N-(quinolin-8-yl)azetidine-2-carboxamide] | 82.25 | ~400 | – | –
3 | C=CC(=O)N1[C@H](c2ccc3c(c2)OCO3)c2[nH]c3ccccc3c2C[C@H]1C(=O)N1CCOCC1 [WX-02-23, 1-((1R,3S)-1-(benzo[d][1,3]dioxol-S-yl)-3-(morpholine-4-carbonyl)-1,3,4,9-tetrahydro-2H-pyrido [3,4-b]indol-2-yl)prop-2-en-1-one] | – | – | induced expression of p27 | much greater extent
